Measured values taken from DBAASP.
Converted amounts (≈) assume the structure as drawn.

Experiments:
Experiment in all cases: ≥ marks a high value that may be exact or a test limit, other limits are often not marked, values filed in µg/mL are converted to µM
[1] = system: Candida albicans ATCC 90028
[2] = system: Candida glabrata ATCC 90030
Candida krusei ATCC 6258 = system: Candida krusei ATCC 6258
[3] = system: Enterobacter cloacae ATCC 13047
[4] = system: Enterococcus faecalis ATCC 4028
[5] = system: Escherichia coli ATCC 25922
[6] = system: Pseudomonas aeruginosa ATCC 27853
[7] = system: Staphylococcus aureus ATCC 29213
[8] = system: Staphylococcus epidermidis ATCC 12228
[9] = system: Escherichia coli K12 MG1655
Escherichia coli UTI89 = system: Escherichia coli UTI89
[10] = system: Salmonella enterica subsp. enterica serovar Typhimurium ATCC 14028
[11] = system: Staphylococcus epidermidis
[12] = system: Candida albicans ATCC 90029
Escherichia coli = system: Escherichia coli
[13] = system: Salmonella enterica subsp. enterica serovar Pullorum CVCC 3533
[14] = system: Salmonella enterica subsp. enterica serovar Pullorum
Staphylococcus aureus = system: Staphylococcus aureus
[15] = system: Candida albicans ATCC 14053
[16] = system: Escherichia coli ATCC 11775
[17] = system: Micrococcus luteus ATCC 49732
[18] = system: Staphylococcus aureus ATCC 12600

`CC[C@H](C)[C@H](NC(=O)[C@H](CC(C)C)NC(=O)[C@H](CCCCN)NC(=O)[C@H](CCCCN)NC(=O)[C@@H](NC(=O)[C@H](CC(C)C)NC(=O)[C@H](CO)NC(=O)[C@@H]1CCCN1C(=O)[C@@H](NC(=O)[C@H](CC(C)C)NC(=O)[C@H](CO)NC(=O)[C@H](Cc1ccccc1)NC(=O)[C@@H](N)Cc1ccccc1)[C@@H](C)CC)C(C)C)C(=O)N[C@@H](CCCCN)C(=O)N[C@@H](C)C(=O)N[C@@H](Cc1ccccc1)C(=O)N[C@@H](CCCCN)C(N)=O` [FFSLIPSLVKKLIKAFK] showed an MIC [1] of 9.4 µM (≈ 18.6 µg/mL), an MIC [2] of 9.4 µM (≈ 18.6 µg/mL) and an MIC (Candida krusei ATCC 6258) of 9.4 µM (≈ 18.6 µg/mL). It also gave an MIC [3] of 18.8 µM (≈ 37.2 µg/mL), an MIC [4] of 4.7 µM (≈ 9.3 µg/mL) and an MIC [5] of 2.3 µM (≈ 4.55 µg/mL). It also gave an MIC [6] of 4.7 µM (≈ 9.3 µg/mL), an MIC [7] of 1.2 µM (≈ 2.37 µg/mL) and an MIC [8] of 2.3 µM (≈ 4.55 µg/mL).
With `CC[C@H](C)[C@H](NC(=O)[C@H](CCCN=C(N)N)NC(=O)[C@H](CCC(N)=O)NC(=O)[C@H](Cc1c[nH]c2ccccc12)NC(=O)[C@@H](NC(=O)[C@H](CCCCN)NC(=O)[C@@H](N)CCCCN)[C@@H](C)CC)C(=O)N[C@@H](CCCCN)C(=O)N[C@@H](CC(N)=O)C(=O)N[C@@H](Cc1ccccc1)C(=O)N[C@@H](Cc1ccccc1)C(=O)N[C@@H](CCC(N)=O)C(=O)N[C@@H](CCCCN)C(=O)N[C@@H](CC(C)C)C(=O)O` [KKIWQRIKNFFQKL] the MIC [9] was 7 µM (≈ 13.1 µg/mL), the MIC (Escherichia coli UTI89) was 6.25 µM (≈ 11.7 µg/mL) and the MIC [10] was 29 µM (≈ 54.4 µg/mL). The MIC [11] was at least 50 µM.
`CC(C)C[C@H](NC(=O)[C@H](CCCCN)NC(=O)[C@H](Cc1cnc[nH]1)NC(=O)[C@H](CCCCN)NC(=O)[C@H](CC(C)C)NC(=O)[C@H](CC(C)C)NC(=O)[C@@H](N)CCCCN)C(=O)N[C@@H](CC(C)C)C(=O)N[C@H](C(=O)N[C@H](C(=O)N[C@@H](CC(C)C)C(=O)N[C@@H](C)C(=O)O)[C@@H](C)O)C(C)C` [KLLKHKLLVTLA] showed an MIC [12] of at least 36.3 µM, an MIC [5] of 9.08 µM (≈ 12.5 µg/mL) and an MIC (Escherichia coli) of 18.2 µM (≈ 25 µg/mL). It also gave an MIC [13] of 4.54 µM (≈ 6.25 µg/mL), an MIC [14] of 4.54 µM (≈ 6.25 µg/mL) and an MIC [7] of 18.2 µM (≈ 25 µg/mL). It also gave an MIC (Staphylococcus aureus) of 18.2 µM (≈ 25 µg/mL).
With `C[C@H](NC(=O)[C@H](C)NC(=O)[C@@H](NC(=O)CNC(=O)[C@@H]1CCCN1)[C@@H](C)O)C(=O)N[C@@H](Cc1ccccc1)C(=O)N[C@@H](CCCCN)C(=O)O` [PGTAAFK] the MIC [15] was at least 36 µM, the MIC [16] was at least 128 µM and the MIC [17] was at least 36 µM. It also gave an MIC [18] of at least 967 µM.
